Test results: patent publication US20210137948A1, “TREATMENT OF INFECTIONS CAUSED BY NEISSERIA GONOCOCCUS USING A HALOGENATED SALICYLANILIDE” (priority 2018, published 2021)
Converted amounts (≈) assume the structure as drawn. Read-outs that look alike come from different tables or passages of the source. One block for each molecule: values may come before it.

What was measured:
Escherichia coli [1] = settings: Escherichia coli MMX 102/ATCC 25922, range in parentheses; cited from earlier work
Pseudomonas aeruginosa [2] = assay: Broth microdilution MIC testing; assay type: cell-based; settings: Pseudomonas aeruginosa MMX 103/ATCC 27853, susceptible, QC; for MIC: ATCC27853, read-out: Minimal Inhibitory Concentration
Description: (§1) Broth microdilution assay: Mueller Hinton II broth (MHB II, BBL, BD, catalog no. 212322; lot no. 5257869) was used for testing most aerobes.
(§2) MIC values were determined using a broth microdilution procedure described by CLSI, see reference (1). Automated liquid handlers (Multidrop 384, Labsystems, Helsinki, Finland; Biomek 2000 and Biomek FX, Beckman Coulter, Fullerton Calif.) were used to conduct serial dilutions and liquid transfers.
(§3) The wells in Columns 2 through 12 of two standard 96-well microdilution plates (Costar 3795, Corning Inc., Corning, N.Y.) were filled with 150 μL of diluent specific to the compound tested. Three hundred microliters of each comparator and investigational drug solution (40× or 100×) was added to one well in Column 1 of the plates. The Biomek 2000 was used to complete the serial transfers through Column 11. The wells of Column 12 contained no drug and were the organism growth control wells. These panels were the “mother plates.”
(§4) Because drugs were prepared at either 40× or 100×, the “daughter plates” were loaded with 185-188 μL of the appropriate test media for the tested organism, using the Multidrop 384 or by hand. The daughter plates were prepared on the Biomek FX instrument, which transferred 2-5 μL of drug solution from each well of a mother plate to the corresponding well of each daughter plate in a single step. The wells of the daughter plates ultimately contained 185-188 μL of broth appropriate to the organism, 2-5 μL of drug solution, and 10 μL of bacterial inoculum prepared in broth.
(§5) Standardized inoculum of each organism was prepared per CLSI methods, see reference (1). The inoculum for each organism was dispensed into sterile reservoirs divided by length (Beckman Coulter), and the Biomek 2000 was used to inoculate the plates. Daughter plates were placed on the Biomek 2000 work surface in reverse orientation so that inoculation took place from low to high drug concentration. The Biomek 2000 delivered 10 μL of standardized inoculum into each well. This yielded a final cell density in the daughter plates of approximately 5×10^5 CFU/mL.
(§6) Plates were stacked 3 high, covered with a lid on the top plate, placed in plastic bags, and incubated at 35° C. for approximately 18 to 20 hr. Following incubation, the microplates were removed from the incubator and viewed from the bottom using a plate viewer. […] The MIC was read and recorded as the lowest concentration of drug that inhibited visible growth of the organism.

Enterobacter cloacae = assay: Broth microdilution MIC testing; assay type: cell-based; settings: Enterobacter cloacae MMX 6089, susceptible; for MIC: read-out: Minimal Inhibitory Concentration
Description: as §1, §2, §3, §4, §5, §6

[3] = test system: Stenotrophomonas maltophila; assay: Broth microdilution MIC testing; assay type: cell-based; settings: Stenotrophomonas maltophila MMX 4746, susceptible; for MIC: Stenotrophomonas sp. LMG 10879, read-out: Minimal Inhibitory Concentration
Description: as §1, §2, §3, §4, §5, §6

Klebsiella pneumoniae = assay: Broth microdilution MIC testing; assay type: cell-based; settings: Klebsiella pneumoniae MMX 214/ATCC 13883, susceptible; for MIC: ATCC13883, read-out: Minimal Inhibitory Concentration
Description: as §1, §2, §3, §4, §5, §6

Acinetobacter baumannii = assay: Broth microdilution MIC testing; assay type: cell-based; settings: Acinetobacter baumannii MMX 1630/ATCC 19606, susceptible; for MIC: ATCC19606, read-out: Minimal Inhibitory Concentration
Description: as §1, §2, §3, §4, §5, §6

Escherichia coli [4] = assay: Broth microdilution MIC testing; assay type: cell-based; settings: for MIC: Escherichia coli, read-out: Minimal Inhibitory Concentration
Description: as §1, §2, §3, §4, §5, §6

Pseudomonas aeruginosa [5] = settings: Pseudomonas aeruginosa MMX 103/ATCC 27853, range in parentheses; cited from earlier work
[6] = test system: N. gonorrhoeae ATCC49226/MMX 683; assay: Agar dilution MIC assay (Example 1); assay type: cell-based, Neisseria gonorrhoeae; settings: Neisseria gonorrhoeae MMX 683/ATCC 49226, QC
Description: Neisseria gonococcus (N. gonorrhoeae) were assayed using a reference agar dilution method, see reference (2). Drug dilutions and drug-supplemented agar plates were prepared manually. Neisseria gonococcus was grown on Chocolate agar in a CO2 incubator overnight at 35° C. prior to assay. […] The MIC was read per CLSI guidelines, see reference (3).

[7] = Escherichia coli MMX 102/ATCC 25922, QC strain

Compound: NCC[C@H](O)C(=O)N[C@@H]1C[C@H](N)[C@@H](O[C@H]2O[C@H](CN)[C@@H](O)[C@H](O)[C@H]2O)[C@H](O)[C@H]1O[C@H]1O[C@H](CO)[C@@H](O)[C@H](N)[C@H]1O [Amikacin]
CLSI QC range of MIC (Escherichia coli [1]): (0.5-4) μg/ml
MIC (Pseudomonas aeruginosa [2]): 2 µg/mL (≈ 3.42 µM)
MIC (Enterobacter cloacae): 1 µg/mL (≈ 1.71 µM)
MIC [3]: 2 µg/mL (≈ 3.42 µM)
MIC (Klebsiella pneumoniae): 0.5 µg/mL (≈ 0.854 µM)
MIC (Acinetobacter baumannii): 16 µg/mL (≈ 27.3 µM)
MIC (Escherichia coli [4]; ATCC25922): 4 µg/mL (≈ 6.83 µM)
MIC (Escherichia coli [4]): 0.5 µg/mL (≈ 0.854 µM)
CLSI QC range of MIC (Pseudomonas aeruginosa [5]): (1-4) μg/ml

Compound: CC(C)(O/N=C(\C(=O)N[C@@H]1C(=O)N2C(C(=O)[O-])=C(C[n+]3ccccc3)CS[C@H]12)c1csc(N)n1)C(=O)O [Ceftazidime]
CLSI QC range of MIC (Escherichia coli [1]): (0.06-0.5) μg/ml
MIC (Pseudomonas aeruginosa [2]): 1 µg/mL (≈ 1.83 µM)
MIC (Enterobacter cloacae): 8 µg/mL (≈ 14.6 µM)
MIC [3]: 4 µg/mL (≈ 7.32 µM)
MIC (Klebsiella pneumoniae): 0.5 µg/mL (≈ 0.915 µM)
MIC (Acinetobacter baumannii): 4 µg/mL (≈ 7.32 µM)
MIC (Escherichia coli [4]; ATCC25922): 0.25 µg/mL (≈ 0.457 µM)
MIC (Escherichia coli [4]): 0.12 µg/mL (≈ 0.22 µM)
CLSI QC range of MIC (Pseudomonas aeruginosa [5]): (1-4) μg/ml

Compound: CC1=C(C(=O)O)N2C(=O)[C@@H](NC(=O)[C@H](N)c3ccccc3)[C@H]2SC1 [Cephalexin]
MIC (Pseudomonas aeruginosa [2]): > 32 µg/mL
MIC (Enterobacter cloacae): > 32 µg/mL
MIC [3]: > 32 µg/mL
MIC (Klebsiella pneumoniae): 4 µg/mL (≈ 11.5 µM)
MIC (Acinetobacter baumannii): > 32 µg/mL
MIC (Escherichia coli [4]; ATCC25922): 8 µg/mL (≈ 23 µM)
MIC (Escherichia coli [4]): 8 µg/mL (≈ 23 µM)

MIC ([6]; ATCC49226, read-out: Minimal Inhibitory Concentration): 0.004 µg/mL (≈ 0.0121 µM)
Compound: O=C(O)c1cn(C2CC2)c2cc(N3CCNCC3)c(F)cc2c1=O [Ciprofloxacin]
Minimal Inhibitory Concentration [6]: 0.004 µg/mL

Compound: C[C@H]1c2cccc(O)c2C(=O)C2=C(O)[C@]3(O)C(=O)C(C(N)=O)=C(O)[C@@H](N(C)C)[C@@H]3[C@@H](O)[C@@H]21 [Doxycycline]
MIC (Pseudomonas aeruginosa [2]): > 8 µg/mL
MIC (Enterobacter cloacae): 1 µg/mL (≈ 2.25 µM)
Minimal Inhibitory Concentration [3]: 0.5 µg/mL
MIC [3]: 0.5 µg/mL (≈ 1.13 µM)
MIC (Klebsiella pneumoniae): 1 µg/mL (≈ 2.25 µM)
MIC (Acinetobacter baumannii): 0.5 µg/mL (≈ 1.13 µM)
Minimal Inhibitory Concentration (Acinetobacter baumannii): 0.5 µg/mL
MIC (Escherichia coli [4]; ATCC25922): 0.5 µg/mL (≈ 1.13 µM)
MIC (Escherichia coli [4]): 0.25 µg/mL (≈ 0.563 µM)

Compound: C[C@H]1COc2c(N3CCN(C)CC3)c(F)cc3c(=O)c(C(=O)O)cn1c23 [Levofloxacin]
MIC (Pseudomonas aeruginosa [2]): 1 µg/mL (≈ 2.77 µM)
Minimal Inhibitory Concentration (Enterobacter cloacae): 0.03 µg/mL
MIC (Enterobacter cloacae): 0.03 µg/mL (≈ 0.083 µM)
Minimal Inhibitory Concentration [3]: 0.5 µg/mL
MIC [3]: 0.5 µg/mL (≈ 1.38 µM)
MIC (Klebsiella pneumoniae): 0.03 µg/mL (≈ 0.083 µM)
Minimal Inhibitory Concentration (Klebsiella pneumoniae): 0.03 µg/mL
MIC (Acinetobacter baumannii): 0.5 µg/mL (≈ 1.38 µM)
Minimal Inhibitory Concentration (Acinetobacter baumannii): 0.5 µg/mL
Minimal Inhibitory Concentration (Escherichia coli [4]; [7]): 0.015 µg/mL
MIC (Escherichia coli [4]; ATCC25922): 0.015 µg/mL (≈ 0.0415 µM)

Compound: C[C@@H](O)[C@H]1C(=O)N2C(C(=O)O)=C(S[C@@H]3CN[C@H](C(=O)N(C)C)C3)[C@H](C)[C@H]12 [Meropenem]
CLSI QC range of MIC (Escherichia coli [1]): (0.008-0.06) μg/ml
MIC (Pseudomonas aeruginosa [2]): 0.25 µg/mL (≈ 0.652 µM)
Minimal Inhibitory Concentration (Pseudomonas aeruginosa [2]): 0.25 µg/mL
MIC (Enterobacter cloacae): 0.06 µg/mL (≈ 0.156 µM)
MIC [3]: 2 µg/mL (≈ 5.22 µM)
MIC (Klebsiella pneumoniae): 0.03 µg/mL (≈ 0.0782 µM)
Minimal Inhibitory Concentration (Klebsiella pneumoniae): 0.03 µg/mL
MIC (Acinetobacter baumannii): 1 µg/mL (≈ 2.61 µM)
Minimal Inhibitory Concentration (Escherichia coli [4]; [7]): 0.015 µg/mL
Minimal Inhibitory Concentration (Escherichia coli [4]; Escherichia coli MMX 120, acrAB efflux pump knockout): 0.015 µg/mL
MIC (Escherichia coli [4]; ATCC25922): 0.015 µg/mL (≈ 0.0391 µM)
MIC (Escherichia coli [4]): 0.015 µg/mL (≈ 0.0391 µM)
CLSI QC range of MIC (Pseudomonas aeruginosa [5]): (0.12-1) μg/ml
